According to patent publication US12419863B2, “Pharmaceutical composition for use in treatment of hypertrophic cardiomyopathy” (CELLTRION INC., priority 2018, dated 2025):

Columns and labels:
[1] = patients with hypertrophic cardiomyopathy; no control group; cited from earlier work
[2] = Clinical safety and tolerability evaluation with electrocardiogram, repeated oral administration (Example 2); assay type: in vivo, human; conditions: cohorts 4 and 5: 200 mg once a day for 5 days and 300 mg once a day for 14 days, healthy subjects
[3] = Clinical safety and tolerability evaluation with 12-electrode electrocardiogram, single oral administration (Example 1); conditions: healthy subjects; for QRS / QTcF: oral
Experimental: Randomized, double-blind, placebo-controlled, sequential, ascending, single dosing studies were conducted to evaluate safety, tolerability, pharmacokinetics and pharmacodynamics of cibenzoline.
In this study, a total of 24 subjects were randomly assigned 1:1:1 to three cohorts and proceeded in a total of four stages: screening, treatment period 1, withdrawal period, and treatment period 2. The ratio between the dosed group and the non-dosed group (placebo) is assigned as 6:2.
The main endpoints are safety, tolerability and side effects, and the clinical test items are corrected QT interval (calculated by Fridericia formula) [QTc(F)]), QT interval, and QRS interval, PR interval, and 12-electrode electrocardiogram including ventricular rate, vital signs (blood pressure, pulse, body temperature, respiration rate), hypersensitivity reaction (determined by electrocardiogram recording and vital signs), clinical inspection evaluation (hematology, blood chemistry, urinalysis, etc.), adverse reactions (including serious adverse reactions).

[4] = Cohort 1: 200 mg once, Day 1, 1.5 h after administration
[5] = Cohort 1: 200 mg once, Day 1, 3 h after administration
[6] = Cohort 1: 200 mg once, Day 1, 8 h after administration
[7] = Cohort 1: 200 mg once, Day 1 before administration (baseline)
[8] = Cohort 2: 300 mg once, Day 1, 1.5 h after administration
[9] = Cohort 2: 300 mg once, Day 1, 3 h after administration
[10] = Cohort 2: 300 mg once, Day 1, 8 h after administration
[11] = Cohort 2: 300 mg once, Day 1 before administration (baseline)

## c1ccc(C2(c3ccccc3)CC2C2=NCCN2)cc1 (racemic) [cibenzoline, 2-(2,2-diphenylcyclopropyl)-4,5-dihydro-1H-imidazole]
[1]
  side effects compared with disopyramide: fewer side effects than disopyramide

## c1ccc(C2(c3ccccc3)CC2C2=NCCN2)cc1 (stereo not drawn) [S(−)-cibenzoline]
[2]
  effects of QcTF and QRS prolongation (electrocardiography): QcTF and QRS prolongation were confirmed
[2]; compared to cohort 6 (racemic mixture 150 mg 3 times a day, 14 days)
  side effects for multiple administration (safety and tolerability): did not cause significant side effects
[3]; 200 mg and 300 mg once a day, single oral administration, compared to cohort 3 (racemic mixture 150 mg 3 times a day)
  side effects (safety and tolerability): did not cause significant side effects
[3]; [4]
  QRS: 102 ms
  QTcF: 412 ms
[3]; [5]
  QRS: 107 ms
  QTcF: 426 ms
[3]; [6]
  QRS: 99 ms
  QTcF: 408 ms
[3]; [7]
  QRS: 92 ms
  QTcF: 406 ms
[3]; [8]
  QRS: 107 ms
  QTcF: 419 ms
[3]; [9]
  QRS: 116 ms
  QTcF: 429 ms
[3]; [10]
  QRS: 107 ms
  QTcF: 415 ms
[3]; [11]
  QRS: 101 ms
  QTcF: 411 ms
[3]; cohorts 1 and 2: 200 mg and 300 mg, single oral administration
  effects of QcTF and QRS prolongation (electrocardiography): QcTF and QRS prolongation were confirmed
